Test results: DBAASP
≈ marks a conversion by molar mass, not a printed value.

What was measured:
Experiment in all cases: ≥ marks a high value that may be exact or a test limit, other limits are often not marked, values filed in µg/mL are converted to µM
[1] = test system: Streptococcus pyogenes ATCC 21547
[2] = test system: Staphylococcus epidermidis ATCC 12228
[3] = test system: Pseudomonas syringae pv. tabaci 1918NCPPB
[4] = test system: Staphylococcus aureus ATCC BAA-44
[5] = test system: Pseudomonas aeruginosa ATCC 27583
[6] = test system: Staphylococcus aureus ATCC 29213
[7] = test system: Staphylococcus aureus Cowan 1
[8] = test system: Acinetobacter baumannii ATCC BAA-747
[9] = test system: Schizosaccharomyces pombe
[10] = test system: Candida parapsilosis ATCC 22019
[11] = test system: Enterococcus faecalis ATCC 29212
Staphylococcus capitis 1 = test system: Staphylococcus capitis 1
Acinetobacter junii RT-4 = test system: Acinetobacter junii RT-4
[12] = test system: Pseudomonas aeruginosa ATCC 27853
[13] = test system: Staphylococcus aureus ATCC 700698
[14] = test system: Aeromonas hydrophila Rt-6
[15] = test system: Staphylococcus aureus ATCC 33592
[16] = test system: Bacillus subtilis ATCC 6633
[17] = test system: Klebsiella pneumoniae ATCC 700603
Cryptococcus neoformans = test system: Cryptococcus neoformans
[18] = test system: Enterococcus faecium ATCC 700221
[19] = test system: Klebsiella pneumoniae ATCC 27736
Bacillus megaterium Bm11 = test system: Bacillus megaterium Bm11
[20] = test system: Staphylococcus aureus ATCC 43300
[21] = test system: Candida albicans ATCC 10231
Escherichia coli D21 = test system: Escherichia coli D21
Pseudomonas aeruginosa = test system: Pseudomonas aeruginosa
[22] = test system: Pseudomonas aeruginosa ATCC BAA-427
Saccharomyces cerevisiae = test system: Saccharomyces cerevisiae
[23] = test system: Acinetobacter baumannii ATCC 19606
[24] = test system: Staphylococcus aureus ATCC 700699
[25] = test system: Escherichia coli ATCC 9637
[26] = test system: Yersinia pseudotuberculosis YPIII
[27] = test system: Pseudomonas aeruginosa ATCC 15692
Bacillus subtilis 168 HT = test system: Bacillus subtilis 168 HT
Escherichia coli MG1655 = test system: Escherichia coli MG1655
[28] = test system: Staphylococcus aureus ATCC 25923
[29] = test system: Pseudomonas aeruginosa H374
[30] = test system: Pseudomonas aeruginosa DSM 1128
[31] = test system: Klebsiella pneumoniae DSM 681
[32] = test system: Burkholderia cepacia ATCC 25416
[33] = test system: Salmonella enterica subsp. enterica serovar Typhimurium ATCC 14028s
[34] = test system: Pseudomonas aeruginosa H547
[35] = test system: Pseudomonas aeruginosa K799
[36] = test system: Pseudomonas aeruginosa Z61
[37] = test system: Streptococcus pneumoniae DSM 11865
[38] = test system: Escherichia coli DSM 1103
[39] = test system: Pseudomonas aeruginosa H744
Escherichia coli UB1005 = test system: Escherichia coli UB1005
Sporothrix schenckii = test system: Sporothrix schenckii
[40] = test system: Trichophyton mentagrophytes
Bacillus cereus = test system: Bacillus cereus
Aspergillus fumigatus = test system: Aspergillus fumigatus

CC[C@H](C)[C@H](NC(=O)[C@H](CCCNC(=N)N)NC(=O)CNC(=O)[C@H](CC(C)C)NC(=O)[C@H](Cc1ccccc1)NC(=O)[C@H](CCCCN)NC(=O)[C@H](CO)NC(=O)[C@H](Cc1ccccc1)NC(=O)[C@H](Cc1c[nH]c2ccccc12)NC(=O)[C@H](CCC(N)=O)NC(=O)[C@@H](NC(=O)[C@@H](N)Cc1ccccc1)C(C)C)C(=O)N[C@@H](CC(C)C)C(N)=O [FVQWFSKFLGRIL]
MIC [1]: 6 µM (≈ 9.84 µg/mL)
MIC [2]: 1.94 µM (≈ 3.18 µg/mL)
MIC [3]: 6 µM (≈ 9.84 µg/mL)
MIC [4]: 3.6 µM (≈ 5.9 µg/mL)
MIC [5]: ≥ 32 µM
MIC [6]: 3.6 µM (≈ 5.9 µg/mL)
MIC [7]: 2.74 µM (≈ 4.49 µg/mL)
MIC [8]: 4 µM (≈ 6.56 µg/mL)
MIC [9]: 6 µM (≈ 9.84 µg/mL)
MIC [10]: 12 µM (≈ 19.7 µg/mL)
MIC [11]: 6 µM (≈ 9.84 µg/mL)
MIC (Staphylococcus capitis 1): 1.5 µM (≈ 2.46 µg/mL)
MIC (Acinetobacter junii RT-4): 3 µM (≈ 4.92 µg/mL)
MIC [12]: > 48 µM
MIC [13]: 3.6 µM (≈ 5.9 µg/mL)
MIC [14]: ≥ 40 µM
MIC [15]: 3.6 µM (≈ 5.9 µg/mL)
MIC [16]: 7.6 µM (≈ 12.5 µg/mL)
MIC [17]: 16 µM (≈ 26.2 µg/mL)
MIC (Cryptococcus neoformans): 12 µM (≈ 19.7 µg/mL)
MIC [18]: 8 µM (≈ 13.1 µg/mL)
MIC [19]: 11.4 µM (≈ 18.7 µg/mL)
MIC (Bacillus megaterium Bm11): 1.94 µM (≈ 3.18 µg/mL)
MIC [20]: 4 µM (≈ 6.56 µg/mL)
MIC [21]: 12 µM (≈ 19.7 µg/mL)
MIC (Escherichia coli D21): 11 µM (≈ 18 µg/mL)
MIC (Pseudomonas aeruginosa): 64 µM (≈ 105 µg/mL)
MIC [22]: 7.6 µM (≈ 12.5 µg/mL)
MIC (Saccharomyces cerevisiae): 6 µM (≈ 9.84 µg/mL)
MIC [23]: 6 µM (≈ 9.84 µg/mL)
MIC [24]: 3.6 µM (≈ 5.9 µg/mL)
MIC [25]: 12.5 µM (≈ 20.5 µg/mL)
MIC [26]: 3 µM (≈ 4.92 µg/mL)
MIC [27]: 21.9 µM (≈ 35.9 µg/mL)

CC[C@H](C)[C@H](N)C(=O)N[C@@H](CO)C(=O)N[C@@H](CCCN=C(N)N)C(=O)N[C@@H](C)C(=O)N[C@@H](CS)C(=O)N[C@@H](CC(C)C)C(=O)N[C@H](C(=O)N[C@@H](CCSC)C(=O)N[C@@H](CCCCN)C(=O)N[C@H](C(=O)N[C@@H](CCCN=C(N)N)C(=O)N[C@@H](CCCN=C(N)N)C(=O)N[C@@H](CCCCN)C(=O)N[C@@H](CCCCN)C(=O)O)C(C)C)[C@@H](C)CC [ISRACLIMKVRRKK]
MIC (Bacillus subtilis 168 HT): 9.4 µM (≈ 16 µg/mL)
MIC (Escherichia coli MG1655): ≥ 37.6 µM

CC[C@H](C)[C@H](NC(=O)CNC(=O)[C@@H](NC(=O)[C@H](CCCCN)NC(=O)[C@H](CCCCN)NC(=O)[C@H](Cc1ccccc1)NC(=O)[C@H](CC(C)C)NC(=O)[C@H](CCCCN)NC(=O)[C@H](Cc1c[nH]c2ccccc12)NC(=O)[C@@H](N)CCCCN)[C@@H](C)CC)C(=O)NCC(=O)N[C@@H](C)C(=O)N[C@H](C(=O)N[C@@H](CC(C)C)C(=O)N[C@@H](CCCCN)C(=O)N[C@H](C(=O)N[C@@H](CC(C)C)C(=O)N[C@H](C(=O)N[C@H](C(=O)NCC(=O)N[C@@H](CC(C)C)C(=O)N1CCC[C@H]1C(=O)N[C@@H](C)C(=O)N[C@@H](CC(C)C)C(=O)N[C@@H](CCCCN)C(=O)N[C@@H](CC(C)C)C(=O)N[C@H](C(=O)N[C@@H](CCCCN)C(=O)O)[C@@H](C)O)[C@@H](C)O)[C@@H](C)O)C(C)C)C(C)C [KWKLFKKIGIGAVLKVLTTGLPALKLTK]
MIC [28]: 2.04 µM (≈ 6.25 µg/mL)
MIC [29]: 0.652 µM (≈ 2 µg/mL)
MIC [30]: 1.02 µM (≈ 3.13 µg/mL)
MIC [31]: 2.04 µM (≈ 6.25 µg/mL)
MIC [32]: 20.9 µM (≈ 64 µg/mL)
MIC [33]: 0.979 µM (≈ 3 µg/mL)
MIC [34]: 1.3 µM (≈ 4 µg/mL)
MIC [35]: 0.979 µM (≈ 3 µg/mL)
MIC [36]: 0.652 µM (≈ 2 µg/mL)
MIC [37]: 2.04 µM (≈ 6.25 µg/mL)
MIC [38]: 2.04 µM (≈ 6.25 µg/mL)
MIC [39]: 0.652 µM (≈ 2 µg/mL)
MIC (Escherichia coli UB1005): 0.652 µM (≈ 2 µg/mL)

CC(C)C[C@H](NC(=O)[C@H](CC(C)C)NC(=O)[C@H](CCCN=C(N)N)NC(=O)[C@H](CCCN=C(N)N)NC(=O)[C@H](C)NC(=O)[C@H](Cc1c[nH]c2ccccc12)NC(=O)[C@H](CCCN=C(N)N)NC(=O)[C@H](C)NC(=O)[C@H](C)NC(=O)[C@H](CCCN=C(N)N)NC(=O)[C@H](CCCN=C(N)N)NC(=O)[C@@H](N)CC(C)C)C(=O)N[C@@H](CCCN=C(N)N)C(=O)N[C@@H](CCCN=C(N)N)C(=O)O [LRRAARWARRLLRR]
MIC [28]: 1.7 µM (≈ 3.15 µg/mL)
MIC (Sporothrix schenckii): 6.76 µM (≈ 12.5 µg/mL)
MIC [10]: 6.76 µM (≈ 12.5 µg/mL)
MIC [40]: ≥ 54 µM
MIC [19]: 3.38 µM (≈ 6.25 µg/mL)
MIC [22]: 13.5 µM (≈ 25 µg/mL)
MIC (Bacillus cereus): 1.7 µM (≈ 3.15 µg/mL)
MIC [25]: 13.5 µM (≈ 25 µg/mL)
MIC (Aspergillus fumigatus): 27 µM (≈ 50 µg/mL)
